Experimental data: patent publication US20240245668A1, “AGENT FOR TREATING OR PREVENTING GLAUCOMA INCLUDING A SULFONAMIDE COMPOUND AND ANOTHER DRUG” (SANTEN PHARMACEUTICAL CO., LTD., priority 2012, published 2024)

Tests used:
[1] = system: monkeys with normal intraocular pressure; test: Intraocular pressure lowering effect, present compound and latanoprost concomitantly administered to monkeys; type: in vivo, Cynomolgus monkey; details: male cynomolgus monkeys, instillation into one eye, 0.0006 w/v % present compound solution 20 μL, Xalatan eye drop (0.005%) 20 μL
From the text: (§1) In order to study the usefulness of a combination of the present compound with a prostaglandin, an intraocular pressure lowering effect when the present compound and latanoprost were concomitantly administered to experimental animals (monkeys with normal intraocular pressure) was examined.
(§2) An intraocular pressure lowering effect when the present compound and latanoprost were concomitantly administered was examined. As comparison subjects, intraocular pressure lowering effects when the present compound or latanoprost was administered singly were also examined. As a control, the base and physiological saline were administered.
(§3) Present compound solution: a 0.0006 w/v % present compound solution (instillation amount: 20 μL) […]
(§4) • (1) One drop of a 0.4% oxybuprocaine hydrochloride eye drop (trade name: Benoxil (registered trademark) eye drop (0.4%)) was instilled into both eyes of each experimental animal to effect local anesthesia. • (2) Intraocular pressure was measured immediately before administering the test compound solution, and the measured intraocular pressure was defined as initial intraocular pressure. • (3) The present compound solution was instilled into one eye of each experimental animal (the other eye was not treated). […] The intraocular measured in triplicate for each eye to obtain an average of three measurements, which is shown as the result. […]

[2] = system: monkeys with normal intraocular pressure; test: Intraocular pressure lowering effect, present compound and brinzolamide concomitantly administered to monkeys; type: in vivo, Cynomolgus monkey; details: male cynomolgus monkeys, instillation into one eye, 0.0006 w/v % present compound solution 20 μL, Azopt Ophthalmic Suspension (1%) 20 μL
From the text: as §1, with “carbonic anhydrase inhibitor,” for “prostaglandin,”, “brinzolamide” for “latanoprost”
as §2, with “brinzolamide” for “latanoprost”
as §3
as §4, with “The intraocular pressure was measured in” for “The intraocular measured in”

[3] = system: monkeys with normal intraocular pressure; test: Intraocular pressure lowering effect, present compound and brimonidine concomitantly administered to monkeys; type: in vivo, Cynomolgus monkey; details: male cynomolgus monkeys, instillation into one eye, 0.0006 w/v % present compound solution 20 μL, ALPHAGAN P (0.15%) 20 μL
From the text: In order to study the usefulness of a combination of the present compound with an α2-receptor agonist, an intraocular pressure lowering effect when the present compound and brimonidine were concomitantly administered to experimental animals (monkeys with normal intraocular pressure) was examined.
as §2, with “brimonidine” for “latanoprost”
as §3
as §4, with “The intraocular pressure was measured in” for “The intraocular measured in”

[4] = system: rabbits with normal intraocular pressure; test: Intraocular pressure lowering effect, present compound and timolol concomitantly administered to rabbits; type: in vivo, Japanese white rabbit; details: male JW rabbits, instillation into one eye, 0.001 w/v % present compound solution 50 μL, Timoptol eye drop (0.5%) 50 μL
From the text: In order to study the usefulness of the combination of the present compound with a β-receptor antagonist, an intraocular pressure lowering effect when the present compound and timolol were concomitantly administered to experimental animals (rabbits with normal intraocular pressure) was examined.
as §2, with “timolol” for “latanoprost”
Present compound solution: a 0.001 w/v % present compound solution (instillation amount: 50 μL) […]
as §4, with “The intraocular pressure was measured in” for “The intraocular measured in”

Structure (SMILES)	Intraocular pressure lowering degree (change relative to average of control group) at 8 hours after instillation [1] [mmHg]	Intraocular pressure lowering degree (change relative to average of control group) at 4 hours after instillation [2] [mmHg]	Intraocular pressure lowering degree (change relative to average of control group) at 2 hours after instillation [3] [mmHg]	Intraocular pressure lowering degree (change relative to average of control group) at 4 hours after instillation [4] [mmHg]
CC(C)OC(=O)CCC/C=C\C[C@@H]1[C@@H](CC[C@@H](O)CCc2ccccc2)[C@H](O)C[C@@H]1O [Latanoprost, latanoprost]	1.5	–	–	–
CCN[C@H]1CN(CCCOC)S(=O)(=O)c2sc(S(N)(=O)=O)cc21 [Brinzolamide, brinzolamide]	–	1.6	–	–
Brc1c(NC2=NCCN2)ccc2nccnc12 [Brimonidine, brimonidine]	–	–	1.8	–
CC(C)(C)NC[C@H](O)COc1nsnc1N1CCOCC1 [Timolol, timolol]	–	–	–	2.3
CC(C)OC(=O)CNc1cccc(CN(Cc2ccc(-n3cccn3)cc2)S(=O)(=O)c2cccnc2)n1 [Present compound, isopropyl (6-{[4-(pyrazol-1-yl)benzyl](pyridin-3-ylsulfonyl)aminomethyl}pyridin-2-ylamino) acetate]	1.6	2.5	2.6	1.6
